According to patent US12077555B2, “STAT degraders and uses thereof” (Kymera Therapeutics, Inc., priority 2019, dated 2024):
Like-named read-outs stand apart in the source and are kept apart here.

Target: STAT3 (Homo sapiens, UniProt P40763)
Test: STAT3 HiBiT degradation assay in transfected A549 cells
Format: cell-based
Parameters: expressed in transfected cells; host or cells: A549
Protocol: Compound preparation and Cell seeding: The transfected A549 cells were harvested from dish into cell culture medium and cell numbers counted. Cells were diluted with culture medium to the desired density and 30 μL of cell suspension (about 2000 cells/well) were added into each well of a 384-well cell culture plate as designated and transferred into 37° C. 5% CO2 incubator for 24 h. Compounds were dissolved to 10 mM stock solution and 12 μL of the stock solution was transferred to a 384 LDV-plate. 3 fold, 10-point dilution was performed by transferring 4 μL compound into 8 μL DMSO using a TECAN (EVO200) liquid handler. 30 μL of diluted compound from compound source plate was transferred into the cell plate as designated by using Echo550 and transferred into 37° C. 5% CO2 incubator for 24 h.
Detection: Plates were removed from incubators and equilibrated at room temperature for 15 minutes. Nano-Glo Hibit Lytic Detection reagent (Promega Cat #N3040) was thawed and equilibrated to room temperature before the experiment. 30 μL of Nano-Glo Hibit Lytic Detection reagent was added into each well to be detected. The plates were held at room temperature for 10 min followed by reading on EnSpire.
Data analysis: The remaining activity was calculated following the formula: Remaining Activity (%)=100%×(Lumsample−LumNC)/(LumPC−LumNC). Calculate the IC50 by fitting the curve using Xlfit (v5.3.1.3), equation 201: fit=(A+((B−A)/(1+((x/C)^D)))); A: Bottom; B: Top; C: IC50; and D: Slope.
The letter codes for STAT3 DC50 include: A (<0.01 μM), B (0.01-0.1 μM), C (0.1-1.0 μM), and D (>1.0 μM).

[1] = A549, 24 h; read-out: STAT3 HiBiT A549 degradation 24 h: Average external-Abs DC50

Chain of STAT3 (P40763 whole entry): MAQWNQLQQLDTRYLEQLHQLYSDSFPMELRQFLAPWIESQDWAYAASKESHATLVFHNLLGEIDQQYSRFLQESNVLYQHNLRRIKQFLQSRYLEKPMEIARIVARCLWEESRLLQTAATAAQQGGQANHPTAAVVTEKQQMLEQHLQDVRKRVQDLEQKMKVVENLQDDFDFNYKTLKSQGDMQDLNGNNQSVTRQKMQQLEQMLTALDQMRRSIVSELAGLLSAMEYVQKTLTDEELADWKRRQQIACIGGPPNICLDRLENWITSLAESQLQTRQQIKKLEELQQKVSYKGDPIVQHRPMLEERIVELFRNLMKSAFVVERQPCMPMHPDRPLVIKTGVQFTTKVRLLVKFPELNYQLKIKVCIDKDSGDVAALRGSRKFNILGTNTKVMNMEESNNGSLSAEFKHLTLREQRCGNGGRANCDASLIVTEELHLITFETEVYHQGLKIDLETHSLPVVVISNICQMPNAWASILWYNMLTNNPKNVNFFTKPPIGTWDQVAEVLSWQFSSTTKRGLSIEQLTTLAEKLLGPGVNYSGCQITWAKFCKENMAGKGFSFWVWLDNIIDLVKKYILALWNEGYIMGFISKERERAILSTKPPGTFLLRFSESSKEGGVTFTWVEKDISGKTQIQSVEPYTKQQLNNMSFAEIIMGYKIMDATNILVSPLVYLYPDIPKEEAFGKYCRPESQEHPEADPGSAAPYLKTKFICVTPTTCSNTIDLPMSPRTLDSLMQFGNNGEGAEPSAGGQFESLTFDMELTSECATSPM

Row | Compound | DC50 (read-out: STAT3 HiBiT A549 degradation 24 h: Average external-Abs DC50; A549, 24 h) [nM] | DC50 [1] [nM]
1 | CN1C(=O)CCC(N2Cc3c(C#CCCCCCC(=O)N4CC[C@H]5CC[C@@H](C(=O)N[C@@H](CCC(N)=O)C(=O)NC(c6ccccc6)c6ccccc6)N5C(=O)[C@@H](NC(=O)c5cc6cc(C(=O)P(=O)(O)O)ccc6[nH]5)C4)cccc3C2=O)C1=O (stereo in doubt) [Compound I-120, diammonium 2-[[(5S,8S,10aR)-8-[[(1S)-3-carbamoyl-1-(diphenylmethylcarbamoyl)propyl]carbamoyl]-3-[8-[2-(1-methyl-2,6-dioxopiperidin-3-yl)-1-oxo-3H-isoindol-4-yl]oct-7-ynoyl]-6-oxo-octahydropyrrolo[1,2-a][1,5]diazocin-5-yl]carbamoyl]-1H-indole-5-carbonylphosphonate] | > 1000 | 
2 | C/C(=C\C(=O)N[C@H]1CCc2cccc3c2N(C1=O)[C@H](C(=O)N[C@@H](CCC(N)=O)[C@@H](C)OCc1ccc(CCCCC(=O)N[C@H](C(=O)N2C[C@@H](O)C[C@H]2C(=O)NCc2ccc(-c4scnc4C)cc2)C(C)(C)C)cc1)C3)c1ccc(C(F)(F)P(=O)(O)O)cc1 [Compound I-119] |  | > 1000
3 | Cc1ncsc1-c1ccc(CNC(=O)[C@@H]2C[C@H](O)CN2C(=O)[C@@H](NC(=O)CCCCc2ccc(CO[C@H](C)[C@H](CCC(N)=O)NC(=O)[C@@H]3Cc4cccc5c4N3C(=O)[C@@H](NC(=O)c3cc4cc(C(=O)P(=O)(O)O)ccc4[nH]3)CC5)cc2)C(C)(C)C)cc1 [Compound I-121, diammonium 2-[[(2S,11S)-2-[[(3S,4R)-1-carbamoyl-4-[[4-(4-[[(2S)-1-[(2S,4S)-4-hydroxy-2-([[4-(4-methyl-1,3-thiazol-5-yl)phenyl]methyl]carbamoyl)pyrrolidin-1-yl]-3,3-dimethyl-1-oxobutan-2-yl]carbamoyl]butyl)phenyl]methoxy]pentan-3-yl]carbamoyl]-12-oxo-1-azatricyclo[6.4.1.0^[4,13]]trideca-4(13),5,7-trien-11-yl]carbamoyl]-1H-indole-5-carbonylphosphonate] |  | > 1000
4 | Cn1c(=O)n(C2CCC(=O)NC2=O)c2cccc(CCCC(=O)N3CC[C@H]4CC[C@@H](C(=O)N[C@@H](CCC(N)=O)C(=O)NC(c5ccccc5)c5ccccc5)N4C(=O)[C@@H](NC(=O)c4cc5cc(C(=O)P(=O)(O)O)ccc5[nH]4)C3)c21 (stereo partly drawn) [Compound I-122, 2-[[(5S,8S,10aR)-8-[[(1S)-3-carbamoyl-1-(diphenylmethylcarbamoyl)propyL]carbamoyl]-3-[4-[1-(2,6-dioxopiperidin-3-yl)-3-methyl-2-oxo-1,3-benzodiazol-4-yl]butanoyl]-6-oxo-octahydropyrrolo[1,2-a][1,5]diazocin-5-yl]carbamoyl]-1H-indole-5-carbonylphosphonic acid] |  | > 1000
5 | Cn1c(=O)n(C2CCC(=O)NC2=O)c2cccc(CCCCCC(=O)N3CC[C@H]4CC[C@@H](C(=O)N[C@@H](CCC(N)=O)C(=O)NC(c5ccccc5)c5ccccc5)N4C(=O)[C@@H](NC(=O)c4cc5cc(C(=O)P(=O)(O)O)ccc5[nH]4)C3)c21 (stereo partly drawn) [Compound I-123, 2-[[(5S,8S,10aR)-8-[[(1S)-3-carbamoyl-1-(diphenylmethylcarbamoyl)propyl]carbamoyl]-3-[6-[1-(2,6-dioxopiperidin-3-yl)-3-methyl-2-oxo-1,3-benzodiazol-4-yl]hexanoyl]-6-oxo-octahydropyrrolo[1,2-a][1,5]diazocin-5-yl]carbamoyl]-1H-indole-5-carbonylphosphonic acid] |  | > 1000
6 | Cn1c(=O)n(C2CCC(=O)NC2=O)c2cccc(CCCCCCC(=O)N3CC[C@H]4CC[C@@H](C(=O)N[C@@H](CCC(N)=O)C(=O)NC(c5ccccc5)c5ccccc5)N4C(=O)[C@@H](NC(=O)c4cc5cc(C(=O)P(=O)(O)O)ccc5[nH]4)C3)c21 (stereo partly drawn) [Compound I-124, 2-[[(5S,8S,10aR)-8-[[(1S)-3-carbamoyl-1-(diphenylmethylcarbamoyl)propyl]carbamoyl]-3-[7-[1-(2,6-dioxopiperidin-3-yl)-3-methyl-2-oxo-1,3-benzodiazol-4-yl]heptanoyl]-6-oxo-octahydropyrrolo[1,2-a][1,5]diazocin-5-yl]carbamoyl]-1H-indole-5-carbonylphosphonic acid] |  | > 1000
